The text below walks through data of patent US9688695B2, “Imidazothiadiazole and imidazopyrazine derivatives as protease activated receptor 4 (PAR4) inhibitors for treating platelet aggregation” (BRISTOL-MYERS SQUIBB COMPANY, priority 2012, dated 2017).

In data set [1] the test system is carotid artery thrombosis. As to the kind of experiment: Cynomolgus monkey electrolytic injury-induced carotid artery thrombosis model. Type of data set: in vivo. To be noted: oral, electrically-induced arterial thrombus model. An excerpt: The efficacy of the PAR4 antagonists of the present invention in preventing thrombosis can also be measured in a variety of in vivo assays. Exemplary mammals that can provide models of thrombosis and hemostasis to test the effectiveness of the PAR4 antagonists of the present invention as antithrombotic agents include, but are not limited to, guinea pigs and primates. Relevant efficacy models include, but are not limited to, electrolytic injury-induced carotid artery thrombosis, FeCl3-induced carotid artery thrombosis and arteriovenous-shunt thrombosis. […]
On the day of the study, compounds or vehicles were administered orally at 1 to 2 hours before the experiment. […] Blood pressure and heart rate were monitored to maintain normal vital signs.
Carotid blood flow was measured with an appropriately sized TRANSONIC® flow probe and a TRANSONIC® perivascular flowmeter (TS420 Model, Transonic Systems Inc., Ithaca, N.Y.). It was continuously recorded over a 90-min period to monitor thrombosis-induced occlusion. Integrated carotid blood flow was measured by the area under the flow-time curve. It was expressed as percent of total control carotid blood flow, which would result if control blood flow had been maintained continuously for 90 min. […]

Data set [2] deals with carotid artery thrombosis. As to the kind of experiment: cynomolgus monkey electrolytic injury-induced carotid artery thrombosis model. It counts as in vivo.
The next data set concerns the target PAR1 (Homo sapiens (Human), UniProt P25116). To be noted: ACS patients, phase III; cited from earlier work.
The target of data set [3] is T1, PAR4 (Homo sapiens (Human), UniProt Q96RI0). Description: Gamma thrombin induced platelet aggregation assay (PRP assay). It counts as cell-based. To be noted: human platelet rich plasma, 96-well microplate. On the procedure:
Platelet aggregation can be monitored in a 96-well microplate aggregation assay format or using standard platelet aggregometer.
The platelet rich plasma was isolated by centrifugation at 170 g for 14 minutes.
The ability of the compounds of the current invention to inhibit platelet aggregation induced by gamma-thrombin was tested in a 96-well microplate aggregation assay format. Briefly, PRP or washed platelet suspension (100 μl) was pre-incubated for 5 minutes at room temperature with varying concentrations of compounds. Aggregation was initiated by ˜10-50 nM gamma thrombin (Haematologic Technologies, Essex Junction, Vt.), which was titrated daily to achieve 80% platelet aggregation. Refludan at 1 U/mL (Berlex, Montville, N.J.) was added to the gamma thrombin sample to prevent PAR1 activation induced by residual alpha-thrombin contamination. The plate was then placed into a 37° C. Molecular Devices (Sunnyvale, Calif.) SPECTRAMAX® Plus Plate Reader. […] The plate also included an untreated control sample which served as ODmax, while buffer containing no platelets was the ODmin. Platelet aggregation was determined by subtracting the ODmax from the ODmin for the 100% aggregation value. In experimental samples, the observed transmission was subtracted from the minimum value and then compared to the 100% aggregation value to determine the percentage aggregation. IC50 values are determined using Excel Fit software.

In data set [4] the target is T1, PAR4. As to the kind of experiment: FLIPR assay in PAR4-expressing HEK293 cells (PAR4 antagonist activity, calcium mobilization). It counts as cell-based. To be noted: H-Ala-Phe(4-F)-Pro-Gly-Trp-Leu-Val-Lys-Asn-Gly-NH2-induced calcium mobilization. In a few lines: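 HEK293 EBNA cells stably expressing human PAR4 (also endogenous PAR1) preincubated 30 min at room temperature with compound in HBSS/10 mM HEPES, 0.67% DMSO final. PAR4 agonist peptide then added and intracellular calcium mobilization monitored by fluorescence.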

T1 sequence (Q96RI0 18-385): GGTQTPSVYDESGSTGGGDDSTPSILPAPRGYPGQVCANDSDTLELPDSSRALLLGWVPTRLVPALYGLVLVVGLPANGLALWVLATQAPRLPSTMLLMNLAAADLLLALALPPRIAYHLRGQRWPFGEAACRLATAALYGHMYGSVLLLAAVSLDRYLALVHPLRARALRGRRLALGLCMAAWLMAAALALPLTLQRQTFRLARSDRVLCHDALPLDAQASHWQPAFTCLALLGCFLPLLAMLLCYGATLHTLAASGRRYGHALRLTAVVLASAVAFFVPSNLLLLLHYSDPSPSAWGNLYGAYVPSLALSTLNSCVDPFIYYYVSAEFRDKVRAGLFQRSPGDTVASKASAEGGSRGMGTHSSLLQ
Sequence of PAR1 (P25116 22-425): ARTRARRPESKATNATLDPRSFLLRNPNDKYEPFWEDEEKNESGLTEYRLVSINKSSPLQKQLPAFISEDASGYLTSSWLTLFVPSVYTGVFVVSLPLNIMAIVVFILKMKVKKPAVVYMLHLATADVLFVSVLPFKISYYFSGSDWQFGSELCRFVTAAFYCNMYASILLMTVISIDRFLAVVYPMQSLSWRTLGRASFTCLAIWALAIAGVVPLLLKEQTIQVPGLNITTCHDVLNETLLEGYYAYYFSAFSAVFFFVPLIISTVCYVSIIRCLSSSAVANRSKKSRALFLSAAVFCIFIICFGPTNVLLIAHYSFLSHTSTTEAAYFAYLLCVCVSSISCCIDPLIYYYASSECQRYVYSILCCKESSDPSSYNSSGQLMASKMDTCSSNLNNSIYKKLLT

As to `COc1cc(OCc2csc(-c3ccccc3)n2)c2cc(-c3cn4nc(OC)sc4n3)oc2c1` [Example 3, 2-Methoxy-6-(6-methoxy-4-((2-phenylthiazol-4-yl)methoxy)benzofuran-2-yl)imidazo[2,1-b][1,3,4]thiadiazole], the “antithrombotic efficacy (dose response, FIG. 1C)” value in data set [1] is “demonstrating the in vivo antithrombotic efficacy”. Moreover, the “antithrombotic efficacy (FIG. 1C)” value in data set [2] is given as “antithrombotic efficacy”.
Turning to `CCOC(=O)N[C@@H]1CC[C@@H]2[C@@H](C1)C[C@H]1C(=O)O[C@H](C)[C@H]1[C@H]2/C=C/c1ccc(-c2cccc(F)c2)cn1` [vorapaxar], on PAR1, the cardiovascular events entry was “did not significantly reduce cardiovascular events” and the “risk of major bleeding” value was “significantly increased the risk of major bleeding”.
For the molecule `COc1cc(OCc2csc(Nc3cc(C)ccc3F)n2)c2cc(-c3cn4nc(C)ccc4n3)oc2c1` [Example 266], the half-maximal inhibitory concentration (IC50) against PAR4 [3] was more than 3 µM. In addition, the concentration for a half-maximal effect (EC50) at PAR4 [4] turned out to be 0.016 µM.
Molecule `COc1cc(OCc2csc(N3CCN(CCO)CC3)n2)c2cc(-c3cn4nc(C)ccc4n3)oc2c1` [Example 243] yielded an IC50 on PAR4 [3] of more than 3 µM. At PAR4 [4], the 50% effective concentration (EC50) came out at 0.032 µM.

As usually defined, the IC50 is the concentration needed to halve the response being measured. Usually EC50 stands for the midpoint of the concentration-response curve.
